Results from patent US11565003B2, “Mechanical opening of lipid bilayers by molecular nanomachines” (William Marsh Rice University, priority 2016, dated 2023).
Residues, ends and D or L forms follow the SMILES beside them. *: point of attachment. X1 = C[C@@H]1Cc2ccc3ccccc3c2/C1=C1\c2cc(C#CCCN=[N+]=[N-])ccc2Sc2ccc(C#CCCn3cc(C(=O)*)nn3)cc21

Columns and labels:
[1] = system: NIH 3T3 cells; experiment: UV-activated nanomechanical necrosis, live cell confocal microscopy, NIH 3T3; type: cell-based, mouse; conditions: for Time of Full Necrosis / Time of Initial Necrosis / % acceleration for full necrosis: 355 nm UV; for % acceleration for full necrosis: versus UV upon blank cells
Method: (§1) Following the synthetic bilipid vesicle experiments, nanomechanical action upon live cells was studied using confocal microscopy aided by a super-resolution technique called Phase Modulation Nanoscopy. Applicants used two experimental methods. In the first method (Method A), the molecular motors were loaded into the cell media and the imaging was initiated within 5 minutes to 24 hours. In the second method, (Method B), the molecular motors were loaded into the cell media, incubated for 30 minutes to 24 hours, and then washed three times with fresh molecular motor-free media before imaging. […]
(§2) Microscopy cells were seeded in untreated iBibi 100 μL live cell channels and allowed to grow to 40% to 60% confluence, at 37° C. in 5% CO2. At this stage, the medium was replaced and cells were treated with the studied nanomachines and co-stains as appropriate, with 0.1% DMSO (as detailed above) present in the final imaging medium. For live cell imaging, DMEM/F12 media (10% FBS) lacking phenol red was used from this point onwards. Following incubation, where Method B was used, the channels were washed with live cell imaging media and imaged using a purpose build incubator housing the microscope maintaining 37° C., 5% CO2 and 10% humidity.
(§3) All live cell imaging experiments used either NIH 3T3 mouse skin fibroblast cells, PC-3 cells, a grade 3 human prostate adenocarcinoma, or Chinese hamster ovary cells (CHO). These are all well-studied cell lines with discrete morphological compositions. Each molecular machine was used as a stock solution at 0.10 to 1.00 μM with total dimethyl sulfoxide (DMSO) concentrations not exceeding 0.1% in the final cell media in order to avoid unwanted cell membrane permeabilization, the DMSO being required for solubility of the organic nanomachines. All loading experiments are carried out in a light-suppressed manner and the possibility of induced or accelerated uptake due to interaction between the molecular motors and the applied co-stain has been eliminated using a series of individual and reversed loading experiments.
(§4) All experimental imaging parameters (i.e., laser beam size, confocal pinhole size, laser intensity, line scanning speed, scanning area (field of view, FOV), and line averaging sequences) were kept constant throughout the experiments. The accuracy and errors associated with the establishment of accelerated necrosis are determined based on one dual channel imaging sequence, which takes 15 seconds in total. This imaging sequence has been carefully established using untreated live cells.
(§5) Steady state fluorescence images were recorded using a PhMoNa enhanced Leica SP5 II LSCM equipped with a HCX PL APO 63×/1.40 NA LambdaBlue Oil immersion objective. As an initial control experiment to establish the UV-induced cell toxicity threshold, while mitigating voxel exposure and ensuring sufficient laser dwell time, an imaging sequence has been established to monitor cell morphological and physiological changes as a function of time. All experiments used cell-line-determined culture medium containing 0.1% DMSO.
(§6) The applied 100 Hz detection sequence was based on a bidirectional dual-channel continuous scanning method where a minimalistic non-damaging visible laser light (458 nm, 0.2 mW) is used in conjunction with the above detailed UV exposure. This is set as a 2 line/scan accumulation parallel acquisition sequence that is recorded as a function of time. Studied channels correspond to transmission images and UV-induced mitochondrial auto-fluorescence detected at 460 to 550 nm. Applicants further confirmed that the effectiveness of monitoring the UV-activated nanomechanical action on live cells using a conventional CW mercury-arc excitation source equipped with an epi-fluorescence setup consisting of a Zeiss Axiovert 200M inverted microscope, as discussed in FIGS. 18A-C. […]

[2] = system: PC-3 cells; experiment: UV-activated nanomechanical necrosis, live cell confocal microscopy, PC-3; type: cell-based, human; conditions: for selectivity for targeted PC-3 cells over non-targeted control cells (in words): NIH 3T3 and CHO as non-targeted controls; for Time of Full Necrosis / Time of Initial Necrosis / % acceleration for full necrosis: 355 nm UV; for % acceleration for full necrosis: versus UV upon blank cells
Method: Following the synthetic bilipid vesicle experiments, nanomechanical action upon live cells was studied using confocal microscopy aided by a super-resolution technique called Phase Modulation Nanoscopy. Applicants used two experimental methods. In the first method (Method A), the molecular motors were loaded into the cell media and the imaging was initiated within 5 minutes to 24 hours. In the second method, (Method B), the molecular motors were loaded into the cell media, incubated for 30 minutes to 24 hours, and then washed three times with fresh molecular motor-free media before imaging.
Next, Applicants used the smaller nanomachine, 3. Initial control experiments (blank) were performed without nanomachines being present. UV-induced (355 nm) PC-3 necrosis is not initiated until approximately scan 20 (corresponding to 300 second continuous scanning UV exposure, 400 nJ/voxel total dwell time), characterized by massive disruption and rupture of the mitochondrial network and subsequent well-pronounced auto-fluorescent signal detectable in the nucleoli and nucleus wall (FIG. 7A). This is observable by the nucleoli membrane permeabilization and DNA damage at the onset of necrosis. The UV-induced necrosis reaches final stages at approximately scan 40 (corresponding to 600 seconds) that is consistent with characteristic extracellular membrane rupture and homogenous cytosolic auto-fluorescence, indicating loss of cellular organelle boundaries.
as §2, §3, §4
as §5, with “DMSO. […]” for “DMSO.”

[3] = system: NIH 3T3 cells; experiment: Two-photon near-infra red activation, PI dye entry, NIH 3T3; type: cell-based, mouse; conditions: NIH 3T3, 1 μM, PI 200 nM
Method: (§7) Two-photon microscopy studies of NIH 3T3 cells were executed on a Nikon E600 upright confocal microscope coupled to a tuneable (710-950 nm Coherent MaiTai) multiphoton source operating at (20%) 240 mW power using a 166 lps scan speed and 128×128 pixel frame resolution for MP-illumination. Images (512×512 pixel, 166 lps) were recorded using a 543 nm (1 mW HeNe) laser combined with a 560 nm long-pass filter to record PI (200 nM) fluorescence and follow the onset of induced necrosis.
(§8) Two photon live cell microscopy studies were also executed on a Nikon E600 upright confocal microscope coupled to a tuneable (710-950 nm Coherent MaiTai) multiphoton source operating at (19.8%) 240 mW power at 720 nm using 166 lines/sec scan speed and 128×128 pixel frame resolution for MP-illumination. An oil immersion Nikon IR objective (×60/1.4 NA) was used. Images (512×512 pixel, 166 l/s) were recorded using a 543 nm (1 mW HeNe) laser combined with a 570 nm long-pass filter to record PI dyes (200 nM). Fluorescence was measured as 2 frame averaged images in order to follow the onset of induced necrosis. Necrosis times have been assigned to detectable PI signals in the nucleolus.

[4] = system: PC-3 cells; experiment: Two-photon near-infra red activation, PI dye entry, PC-3; type: cell-based, human; conditions: PC-3, 1 μM, PI 200 nM
Method: as §7, §8

[5] = system: CHO cells; experiment: UV-activated nanomechanical necrosis, live cell confocal microscopy, CHO; type: cell-based, Chinese hamster; conditions: 355 nm UV; for % acceleration for full necrosis: versus UV upon blank cells
Method: as §1, §2, §3, §4, §5, §6

[6] = system: PC-3 cells; experiment: 24 hours incubation without UV: proliferation and apoptosis (Annexin V, Image Cytometry); type: cell-based, human
Method: When PC-3 cells are loaded at 0.5 or 1.0 μM with 9 or 10, washed three times (Method B) or unwashed (Method A) after 24 hours of incubation, the cells visually appear without major signs of toxicity. However, the cells which had been incubated with 9 or 10 over 24 hours were not dividing as prolifically. The cultures appear to be populated ˜25% less in the presence of 9 and 20% of the cells in 10 compared to control untreated cells (FIGS. 12A-E).
In order to further investigate this point, these cells were collected via gentle centrifugation and re-suspended in fresh PBS and analyzed by Image Cytometry. Using Annexin V, these cells were all confirmed to show signs of apoptosis at 93±5%. This is in contrast to the remaining coverslip surface-bound cells that appear healthy.
These latter types of non-apoptotic cells show identical percentage of necrosis acceleration upon subsequent UV-activation of the cell-surface bound nanomachines compared to their shorter incubation time analogues. Thus, it appears that, upon 24 hour incubation, a noticeable amount of cells have nanomachines 9 and 10 either bound to vital cell membrane channels or transport proteins or they are internalized, subsequently shutting down some natural homeostatic mechanisms that leads to programmed cell death (FIGS. 12A-E). Furthermore, this is not the case with shorter incubation times regardless of whether Method A or B is used.

[7] = system: HEK293 cells; experiment: Whole cell patch clamp electrophysiology; type: cell-based, human
Method: FIGS. 16A-B show whole-cell patch clamp studies of the dynamic effects of UV-induced molecular mechanical action of compound 3 upon HEK293 cells. Also shown are control studies using compound 3 without UV activation, UV-exposed rotor-free control molecule 5, and no molecular additives x. Compounds 3 and 5 were used at 1.0 μM concentrations. […] Similarly, the rotor-free compound 5, and no molecular additive x, show no inward currents during UV illumination (center two traces). Cells were held at −70 mV in voltage clamp mode and UV exposure began 15 seconds after the start of the recording. Each recording is a biological replicate and all traces are shown (n=4 recordings from different cells for 3+UV; n=3 recordings from different cells for each other condition). […] The white arrows (lower right image) highlight membrane blebbing that appears only in the cells treated with UV-activated compound 3. The scale bar represents 10 μm and is applicable for each micrograph.
The dynamic effects of nanomechanical action upon cellular membranes were then studied through the whole cell patch clamp electrophysiology of human embryonic kidney 293 cells (HEK293) commonly used for electrophysiological interrogation. […] These inward currents were not observed in the absence of UV illumination or during UV illumination of non-rotor-bearing control 5 or UV illumination of untreated cells (FIG. 16A).

[8] = NIH 3T3, Method B (washed three times)
[9] = PC-3, Method B (washed three times)

SMILES	Time of Full Necrosis ([1]; NIH 3T3, Method A (no washing)) [s]	Time of Initial Necrosis ([1]; NIH 3T3, Method A (no washing)) [s]	% acceleration for full necrosis ([1]; NIH 3T3, Method A) [%]	Time of Full Necrosis [1, 8] [s]	Time of Initial Necrosis [1, 8] [s]	% acceleration for full necrosis ([1]; NIH 3T3, Method B) [%]	selectivity for targeted PC-3 cells over non-targeted control cells (in words) [2]	Time of Full Necrosis ([2]; PC-3, Method A (no washing)) [s]	Time of Initial Necrosis ([2]; PC-3, Method A (no washing)) [s]	% acceleration for full necrosis ([2]; PC-3, Method A) [%]	Time of Full Necrosis [2, 9] [s]	Time of Initial Necrosis [2, 9] [s]	% acceleration for full necrosis ([2]; PC-3, Method B) [%]	PI dye entry upon two-photon near-infra red illumination (in words) [3]	PI dye entry upon two-photon near-infra red illumination (in words) [4]	also measured
C[C@H](NC(=O)[C@H](CCC(=O)O)NC(=O)CNC(=O)[C@H](CC(=O)O)NC(=O)CCc1cn(CCC#Cc2ccc3c(c2)/C(=C2/c4c(ccc5ccccc45)C[C@H]2C)c2cc(C#CCCN=[N+]=[N-])ccc2S3)nn1)C(N)=O [Compound 8]	375	150	37.5	360	150	40	No selectivity was observed	360	150	40	360	150	40	resulting in Propidium Iodide (PI) dyes entering	resulting in Propidium Iodide (PI) dyes entering	–
CC(C)[C@H](NC(=O)[C@H](CCCNC(=N)N)NC(=O)[C@@H](NC(=O)[C@H](CC(N)=O)NC(=O)[C@H](CO)NC(=O)c1cn(CCC#Cc2ccc3c(c2)/C(=C2/c4c(ccc5ccccc45)C[C@H]2C)c2cc(C#CCCN=[N+]=[N-])ccc2S3)nn1)[C@@H](C)O)C(=O)N[C@@H](C)C(=O)N1CCC[C@H]1C(=O)O [Compound 10] (X1-SNTRVAP-OH)	540	270	10	600	300	0	selectively target the PC-3 cell line over CHO cells	420	195	30	435	210	27.5	–	–	UV-accelerated nanomechanical necrosis after 24 hours incubation (in words) ([1]; NIH 3T3, incubated 24 hours): less than half the efficiency compared to identical experiments using the targeted PC-3 cells; accelerated necrosis upon UV-activation after washing and further 24 hours in rotor free media ([2]; PC-3, incubated 30 minutes to 4 hours, washed three times, 24 hours rotor free media): 25%; Time of Full Necrosis ([5]; Method A (no washing)): 540 s; Time of Initial Necrosis ([5]; Method A (no washing)): 270 s; % acceleration for full necrosis ([5]; Method A): 10%; Time of Full Necrosis ([5]; Method B (washed three times)): 600 s; Time of Initial Necrosis ([5]; Method B (washed three times)): 300 s; % acceleration for full necrosis ([5]; Method B): 0%; cultures populated less compared to control untreated cells ([6]; PC-3, 0.5 or 1.0 μM, 24 hours of incubation, no UV): 20%; mobilized cells showing signs of apoptosis (Annexin V) ([6]; PC-3, 24 hours incubation, cells collected from culture media): 93±5%
C[C@@H]1Cc2ccc3ccccc3c2C1=C1c2cc(C#CCCO)ccc2Sc2ccc(C#CCCO)cc21 (racemic) [Compound 3]	300	150	50	–	–	–	–	300	135	50	–	–	–	resulting in Propidium Iodide (PI) dyes entering	resulting in Propidium Iodide (PI) dyes entering	PI entry into cells upon UV-activated membrane disruption (in words) ([2]; PC-3, propidium iodide 0.10 μM in medium): PI enters the cell; membrane currents without UV illumination (in words) ([7]; HEK293, 1.0 μM, 4 minute recording, no UV): no change in membrane currents; inward ionic currents during UV illumination (in words) ([7]; HEK293, Method B, UV 355 nm, 1.0 μM): inward ionic currents were produced; radius of membrane blebs ([7]; HEK293, after UV illumination): 3.8±0.2 μm
